Measurements reported in patent publication US20180215734A1, “PYRIMIDINE DERIVATIVES AS KINASE INHIBITORS AND THEIR THERAPEUTICAL APPLICATIONS” (NantBioScience, Inc., priority 2016, published 2018).

How the values were obtained:
KG1a = experiment: Inhibition of proliferation (CellTiterblue, 72 hr), KG1a; assay type: cell-based, human
Description: (§1) A number of studies were performed to analyze the consequences of tyrosine kinase inhibition in cell lines. To do this, 1000 cells are seeded in 27 μl/well in 384-well microplates, which are then placed in a humidified CO2 incubator at 37° C. overnight. The next day, 3 μl/well of 10× concentrated drug is added and the plates are returned to the incubator for 72 hr. After 72 hr incubation, plates are removed and 6 μl/well CellTiterblue (Promega) viability reagent is added. Plates are returned to the incubator for 3 hrs, after which fluorescence measurements are read on the Victor X3 plate reader (Perkin Elmer). Data are analyzed using Excel (Microsoft), and GI50 values are determined using Prism (Graphpad).

RT112 = experiment: Inhibition of proliferation (CellTiterblue, 72 hr), RT112; assay type: cell-based; conditions: Homo sapiens, RT-112, 72 h
Description: as §1

TG1a Human AML Xenograft = experiment: Antitumor efficacy on TG1a human AML xenograft; assay type: in vivo, mouse
Description: In this Example the antitumor activity of compounds 14, 17, 19, 45, and 48 of the current invention are tested using an art-recognized xenograft model of AML. (“T/C” refers to the ratio of the tumor's size in treated animals versus the tumor size in control untreated animals. “BWC” refers to “body weight change”).

FGFR1(V561M)(h) = FGFR1(V561M)(h) (Homo sapiens, UniProt P11362, V561M); experiment: Kinase assay, FGFR1(V561M)(h); assay type: biochemical
Description: Kinase assay protocols well known to those of ordinary skill in the art were used. Specifically, the buffer composition was as follows: 20 mM MOPS, 1 mM EDTA, 0.01% Brij-35, 5% Glycerol, 0.1% β-mercaptoethanol, 1 mg/mL BSA. Test compounds were initially dissolved in DMSO at the desired concentration, then serially diluted to the kinase assay buffer. In a final reaction volume of 25 μL FGFR1(h) (5-10 mU) and KDR(h) (5-10 mU) are incubated with 8 mM MOPS pH 7.0, 0.2 mM EDTA, 200 μM LRRASLG (Kemptide), 10 mM magnesium acetate and [γ^33P-ATP]. The reaction was initiated by the addition of the MgATP mix. After incubation for 40 minutes at room temperature, the reaction was stopped by addition of 5 μL of a 3% phosphoric acid solution. Ten L of the reaction was then spotted onto a P30 filter mat and washed three times for 5 minutes in 50 mM phosphoric acid and once in methanol prior to drying and scintillation counting. Wells containing substrate but no kinase and wells containing a phosphopeptide control were used to set 0% and 100% phosphorylation value, respectively.
Of all of the steps in developing a drug, the hardest is finding promising compounds. (See, e.g., Malo et al., “Statistical practice in high-throughput screening data analysis,” Nature Biotechnology, 2006, 24, 167-75.) Kinase inhibitors often also have an anti-proliferative effect. […]

FGFR4(h) = FGFR4(h) (Homo sapiens, UniProt P22455); experiment: Kinase assay, FGFR4(h); assay type: biochemical
Flt4(h) = Flt4(h) (Homo sapiens, UniProt P35916); experiment: Kinase assay, Flt4(h); assay type: biochemical
Flt4(h), sequence (P35916 25-1363): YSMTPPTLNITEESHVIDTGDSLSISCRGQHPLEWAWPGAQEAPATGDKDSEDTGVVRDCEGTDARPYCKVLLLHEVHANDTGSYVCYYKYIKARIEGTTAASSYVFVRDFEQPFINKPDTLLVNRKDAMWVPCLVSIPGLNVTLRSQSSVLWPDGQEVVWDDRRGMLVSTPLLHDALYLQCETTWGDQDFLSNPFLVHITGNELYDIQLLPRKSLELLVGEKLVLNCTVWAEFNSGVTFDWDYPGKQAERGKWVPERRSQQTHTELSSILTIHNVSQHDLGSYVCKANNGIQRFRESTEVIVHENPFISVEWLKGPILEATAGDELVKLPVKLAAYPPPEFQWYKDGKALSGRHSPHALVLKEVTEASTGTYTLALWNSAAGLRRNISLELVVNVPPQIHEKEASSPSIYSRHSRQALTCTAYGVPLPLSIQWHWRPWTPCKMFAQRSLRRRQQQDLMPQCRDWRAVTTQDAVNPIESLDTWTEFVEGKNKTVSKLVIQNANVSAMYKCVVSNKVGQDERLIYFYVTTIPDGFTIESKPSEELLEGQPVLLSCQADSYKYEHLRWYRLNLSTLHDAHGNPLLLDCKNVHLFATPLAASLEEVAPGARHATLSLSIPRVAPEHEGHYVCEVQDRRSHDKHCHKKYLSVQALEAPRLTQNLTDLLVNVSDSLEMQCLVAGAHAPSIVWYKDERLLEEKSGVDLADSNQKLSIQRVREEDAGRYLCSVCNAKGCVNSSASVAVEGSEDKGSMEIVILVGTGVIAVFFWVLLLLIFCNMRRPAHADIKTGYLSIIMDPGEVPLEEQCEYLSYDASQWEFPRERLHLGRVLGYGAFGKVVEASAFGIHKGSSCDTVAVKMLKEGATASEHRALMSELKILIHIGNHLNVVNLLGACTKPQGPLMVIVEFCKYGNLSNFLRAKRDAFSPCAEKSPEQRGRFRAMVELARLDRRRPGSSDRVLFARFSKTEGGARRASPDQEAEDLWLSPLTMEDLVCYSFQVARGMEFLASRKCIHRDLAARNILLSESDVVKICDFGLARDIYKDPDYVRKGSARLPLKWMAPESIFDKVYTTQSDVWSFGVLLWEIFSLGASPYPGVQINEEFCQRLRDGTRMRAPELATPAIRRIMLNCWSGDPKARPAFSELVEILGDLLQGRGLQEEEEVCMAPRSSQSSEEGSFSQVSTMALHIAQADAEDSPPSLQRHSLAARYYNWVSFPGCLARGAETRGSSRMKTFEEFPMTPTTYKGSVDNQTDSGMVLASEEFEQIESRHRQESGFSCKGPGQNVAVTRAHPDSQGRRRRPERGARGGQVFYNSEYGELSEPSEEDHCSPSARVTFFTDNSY

ABL(h) = ABL(h) (Homo sapiens, UniProt P00519); experiment: Kinase assay, ABL(h); assay type: biochemical
ABL(h), sequence (P00519 whole entry): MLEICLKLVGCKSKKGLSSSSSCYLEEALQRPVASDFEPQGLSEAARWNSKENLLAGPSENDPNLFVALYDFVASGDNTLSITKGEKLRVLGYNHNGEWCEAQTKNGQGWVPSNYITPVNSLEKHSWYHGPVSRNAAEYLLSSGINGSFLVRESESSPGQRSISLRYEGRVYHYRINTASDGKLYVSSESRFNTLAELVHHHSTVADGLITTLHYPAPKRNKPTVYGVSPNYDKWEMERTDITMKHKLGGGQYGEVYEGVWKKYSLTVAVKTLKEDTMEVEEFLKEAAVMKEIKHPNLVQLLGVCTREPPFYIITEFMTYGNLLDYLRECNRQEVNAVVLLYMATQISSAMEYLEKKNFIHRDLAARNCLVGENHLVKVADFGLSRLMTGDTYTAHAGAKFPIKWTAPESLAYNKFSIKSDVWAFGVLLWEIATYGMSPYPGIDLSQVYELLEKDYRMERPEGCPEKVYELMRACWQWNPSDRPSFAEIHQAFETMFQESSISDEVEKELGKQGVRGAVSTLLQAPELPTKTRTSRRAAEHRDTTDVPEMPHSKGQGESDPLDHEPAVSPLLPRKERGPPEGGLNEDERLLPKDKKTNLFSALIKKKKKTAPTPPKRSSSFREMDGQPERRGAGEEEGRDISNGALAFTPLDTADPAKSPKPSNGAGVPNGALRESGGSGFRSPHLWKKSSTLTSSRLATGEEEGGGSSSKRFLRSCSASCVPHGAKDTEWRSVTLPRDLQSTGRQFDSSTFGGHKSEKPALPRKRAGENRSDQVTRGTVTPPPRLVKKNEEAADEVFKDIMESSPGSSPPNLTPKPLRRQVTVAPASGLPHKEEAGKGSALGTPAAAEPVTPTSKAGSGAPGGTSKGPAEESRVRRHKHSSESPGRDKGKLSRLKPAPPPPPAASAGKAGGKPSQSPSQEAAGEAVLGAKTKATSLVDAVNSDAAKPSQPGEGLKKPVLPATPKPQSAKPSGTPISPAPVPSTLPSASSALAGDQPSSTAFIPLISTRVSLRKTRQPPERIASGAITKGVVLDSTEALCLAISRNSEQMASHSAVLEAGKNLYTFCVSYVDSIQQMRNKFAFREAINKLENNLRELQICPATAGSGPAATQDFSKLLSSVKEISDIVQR

ALK(h) = ALK(h) (Homo sapiens, UniProt Q9UM73); experiment: Kinase assay, ALK(h); assay type: biochemical
Aurora-A (h) = Aurora-A (h) (Homo sapiens, UniProt O14965); experiment: Kinase assay, Aurora-A (h); assay type: biochemical
Aurora-A (h), sequence (O14965 whole entry): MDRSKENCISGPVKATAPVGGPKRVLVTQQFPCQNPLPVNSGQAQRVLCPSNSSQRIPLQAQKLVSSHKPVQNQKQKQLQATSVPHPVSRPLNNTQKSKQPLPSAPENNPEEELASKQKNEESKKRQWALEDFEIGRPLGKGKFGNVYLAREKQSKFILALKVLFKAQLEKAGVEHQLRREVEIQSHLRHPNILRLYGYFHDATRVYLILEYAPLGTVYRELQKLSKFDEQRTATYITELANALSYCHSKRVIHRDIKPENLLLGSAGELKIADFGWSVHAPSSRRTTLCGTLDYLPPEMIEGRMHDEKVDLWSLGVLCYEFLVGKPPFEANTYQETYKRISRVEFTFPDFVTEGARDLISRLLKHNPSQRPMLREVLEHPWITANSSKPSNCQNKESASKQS

Axl(h) = Axl(h) (Homo sapiens, UniProt P30530); experiment: Kinase assay, Axl(h); assay type: biochemical
Flt3(h) = Flt3(h) (Homo sapiens, UniProt P36888); experiment: Kinase assay, Flt3(h); assay type: biochemical
IGF-1R(h) = IGF-1R(h) (Homo sapiens, UniProt P08069); experiment: Kinase assay, IGF-1R(h); assay type: biochemical
Mer(h) = Mer(h) (Homo sapiens, UniProt Q12866); experiment: Kinase assay, Mer(h); assay type: biochemical
Met(h) = Met(h) (Homo sapiens, UniProt P08581); experiment: Kinase assay, Met(h); assay type: biochemical
FGFR3 = target: T1, FGFR3 (Homo sapiens, UniProt P22607); experiment: BaF3 cells engineered for expression of FGFR3; assay type: cell-based; conditions: read-out: IC5o(nM) FGFR3
T1 construct: expressed in transfected cells; host or cells: BaF3
Excerpt: (§2) In FIG. 1 these kinases are from the fibroblast growth factor receptor class of kinases (FGFR1-FGFR4). Compound 19 kinase inhibitory activity FGFR1-FGFR4 are also depicted in Table 5.

FGFR4 = target: T2, FGFR4 (Homo sapiens, UniProt P22455); experiment: BaF3 cells engineered for expression of FGFR4; assay type: cell-based; conditions: read-out: IC5o(nM) FGFR4
T2 construct: expressed in transfected cells; host or cells: BaF3
Excerpt: as §2

[1] = Metabolic stability, rat liver microsomes; assay type: in vitro ADME
[2] = Metabolic stability, mouse liver microsomes; assay type: in vitro ADME
[3] = Cellular toxicity, primary human hepatocyte; assay type: cell-based; conditions: primary hepatocytes
Excerpt: (§3) Table 9 discloses toxicity data for compound 19 from various toxicity tests well known to those of ordinary skill.

[4] = In vivo acute toxicity, MTD; conditions: PO, rat
Excerpt: as §3

hERG = hERG (Homo sapiens, UniProt Q12809); experiment: Cardiovascular toxicity, hERG
hERG, sequence (Q12809 whole entry): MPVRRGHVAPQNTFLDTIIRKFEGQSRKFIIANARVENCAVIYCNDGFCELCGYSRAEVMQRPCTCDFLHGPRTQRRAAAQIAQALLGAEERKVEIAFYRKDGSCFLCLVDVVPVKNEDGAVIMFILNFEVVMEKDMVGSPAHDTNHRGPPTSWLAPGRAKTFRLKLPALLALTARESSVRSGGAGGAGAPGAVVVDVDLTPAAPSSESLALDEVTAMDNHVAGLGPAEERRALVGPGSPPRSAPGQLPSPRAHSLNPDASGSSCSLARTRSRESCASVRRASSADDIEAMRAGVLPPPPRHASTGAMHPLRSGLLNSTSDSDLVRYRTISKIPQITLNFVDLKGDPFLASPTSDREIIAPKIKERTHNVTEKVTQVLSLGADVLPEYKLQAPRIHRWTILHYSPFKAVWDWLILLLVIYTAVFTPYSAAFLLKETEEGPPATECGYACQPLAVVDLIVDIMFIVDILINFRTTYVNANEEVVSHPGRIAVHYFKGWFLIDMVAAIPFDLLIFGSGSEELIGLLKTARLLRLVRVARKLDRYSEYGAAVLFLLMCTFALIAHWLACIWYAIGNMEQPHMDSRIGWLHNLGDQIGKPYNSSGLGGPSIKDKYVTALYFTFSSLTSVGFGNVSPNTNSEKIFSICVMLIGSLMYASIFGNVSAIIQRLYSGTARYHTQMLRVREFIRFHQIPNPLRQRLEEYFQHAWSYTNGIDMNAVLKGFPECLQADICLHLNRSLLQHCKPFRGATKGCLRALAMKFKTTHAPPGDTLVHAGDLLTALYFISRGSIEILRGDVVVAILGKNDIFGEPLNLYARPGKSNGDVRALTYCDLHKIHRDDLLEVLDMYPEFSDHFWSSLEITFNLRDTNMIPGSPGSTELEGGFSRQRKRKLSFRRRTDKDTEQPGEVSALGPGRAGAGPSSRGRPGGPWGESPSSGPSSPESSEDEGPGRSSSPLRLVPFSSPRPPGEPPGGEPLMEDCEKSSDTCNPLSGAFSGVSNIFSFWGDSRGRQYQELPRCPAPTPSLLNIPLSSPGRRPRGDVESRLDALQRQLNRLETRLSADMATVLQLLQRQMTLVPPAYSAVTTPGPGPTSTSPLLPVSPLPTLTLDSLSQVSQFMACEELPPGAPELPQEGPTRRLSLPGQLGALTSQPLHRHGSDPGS
Excerpt: as §3

CYP450 2D6 = CYP450 2D6 (Homo sapiens, UniProt P10635); experiment: CYP450 inhibition, 2D6; assay type: in vitro ADME
CYP450 2D6, sequence (P10635 whole entry): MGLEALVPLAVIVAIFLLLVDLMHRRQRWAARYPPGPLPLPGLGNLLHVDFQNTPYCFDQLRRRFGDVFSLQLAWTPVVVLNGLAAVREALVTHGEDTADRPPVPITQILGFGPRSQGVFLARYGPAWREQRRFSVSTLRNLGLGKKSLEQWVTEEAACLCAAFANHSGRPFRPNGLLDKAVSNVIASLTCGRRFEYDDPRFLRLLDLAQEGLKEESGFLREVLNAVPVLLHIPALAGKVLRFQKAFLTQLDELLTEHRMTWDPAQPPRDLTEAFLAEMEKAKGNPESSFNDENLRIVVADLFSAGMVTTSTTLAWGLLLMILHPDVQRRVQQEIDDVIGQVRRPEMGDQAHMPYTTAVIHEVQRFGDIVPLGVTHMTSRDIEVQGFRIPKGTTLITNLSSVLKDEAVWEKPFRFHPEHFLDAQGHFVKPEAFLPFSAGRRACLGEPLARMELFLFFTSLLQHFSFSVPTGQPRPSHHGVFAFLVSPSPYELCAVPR
Excerpt: as §3

CYP450 3A4 = CYP450 3A4 (Homo sapiens, UniProt P08684); experiment: CYP450 inhibition, 3A4; assay type: in vitro ADME
CYP450 3A4, sequence (P08684 whole entry): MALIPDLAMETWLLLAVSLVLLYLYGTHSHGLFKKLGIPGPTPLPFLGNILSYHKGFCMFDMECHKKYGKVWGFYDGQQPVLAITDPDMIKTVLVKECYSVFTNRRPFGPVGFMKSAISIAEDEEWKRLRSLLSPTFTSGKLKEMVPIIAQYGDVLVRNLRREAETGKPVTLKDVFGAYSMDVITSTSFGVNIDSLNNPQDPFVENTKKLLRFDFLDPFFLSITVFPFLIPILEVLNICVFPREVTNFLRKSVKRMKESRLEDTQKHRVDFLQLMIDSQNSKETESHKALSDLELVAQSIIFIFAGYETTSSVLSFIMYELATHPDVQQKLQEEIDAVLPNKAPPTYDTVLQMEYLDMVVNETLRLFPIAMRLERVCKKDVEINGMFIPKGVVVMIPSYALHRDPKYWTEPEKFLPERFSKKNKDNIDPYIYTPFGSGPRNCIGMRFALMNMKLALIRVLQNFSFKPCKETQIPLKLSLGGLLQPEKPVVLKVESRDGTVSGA
Excerpt: as §3

nude mouse model of AML = experiment: Nude mouse model of AML (FIG. 2, FIG. 3); assay type: in vivo

Structure (SMILES): Cc1cc2c(F)c(Oc3ncnc(Nc4ccc(N5C[C@@H](C)N[C@@H](C)C5)cc4)c3C#N)cc(F)c2[nH]1 [Compound 19]
- GI50 (KG1a; Homo sapiens, KG-1a, 72 hr): 0.0002 µM
- Anti-proliferation activity in KG1a (in words) (KG1a; proliferation assay of Example 2): especially effective
- GI50 (RT112): 0.066 µM
- BWC (%) (TG1a Human AML Xenograft; 5 mg/kg, Qdx10, IP): −4.1%
- T/C (%) (day14) (TG1a Human AML Xenograft; 5 mg/kg, Qdx10, IP): −69.7%
- BWC (%) (TG1a Human AML Xenograft; 10 mg/kg, Qdx10, IP): −6.3%
- T/C (%) (day14) (TG1a Human AML Xenograft; 10 mg/kg, Qdx10, IP): −83.7%
- BWC (%) (d7) (TG1a Human AML Xenograft; 20 mg/kg, Qdx10, IP, d7): −26.2%
- T/C (%) (day7) (TG1a Human AML Xenograft; 20 mg/kg, Qdx10, IP, day7): −68.7%
- Weight loss in dose-response study (FIGS. 4 and 5) (TG1a Human AML Xenograft; highest dose, 20 mg/kg): significant weight loss
- IC50 (FGFR1(V561M)(h)): 0.134 µM
- IC50 (FGFR4(h)): 0.012 µM
- IC50 (Flt4(h)): 0.116 µM
- IC50 (ABL(h)): > 1 µM
- IC50 (ALK(h)): > 1 µM
- IC50 (Aurora-A (h)): > 1 µM
- IC50 (Axl(h)): > 1 µM
- IC50 (Flt3(h)): > 1 µM
- IC50 (IGF-1R(h)): > 1 µM
- IC50 (Mer(h)): > 1 µM
- IC50 (Met(h)): > 1 µM
- IC50 (FGFR3): 32.6 nM
- IC50 (FGFR4): 92.1 nM
- half-life [1]: > 1 h
- half-life [2]: > 1 h
- CC50 [3]: 20 µM
- MTD [4]: 100 mg/kg
- IC50 (hERG): > 30 µM
- IC50 (CYP450 2D6): > 100 µM
- IC50 (CYP450 3A4): 67.3 µM
- Antitumor activity (tumor cells expansion), FIG. 2 (nude mouse model of AML; both dosages tested): near complete suppression of the tumor cells expansion
- Animal weight as surrogate marker for toxicity, FIG. 3 (nude mouse model of AML; vs control): no difference between the control and compound 19 treated animals
